Data reported in patent US12686690B2, “Macrocyclic urea orexin receptor agonists” (Merck Sharp & Dohme LLC, priority 2020, dated 2026).

Biological target: T1, hOX2R (Homo sapiens, UniProt O43614)
T1 construct: expressed in transfected cells; host or cells: CHO cells (G418 selection)
T1 sequence (O43614 1-444): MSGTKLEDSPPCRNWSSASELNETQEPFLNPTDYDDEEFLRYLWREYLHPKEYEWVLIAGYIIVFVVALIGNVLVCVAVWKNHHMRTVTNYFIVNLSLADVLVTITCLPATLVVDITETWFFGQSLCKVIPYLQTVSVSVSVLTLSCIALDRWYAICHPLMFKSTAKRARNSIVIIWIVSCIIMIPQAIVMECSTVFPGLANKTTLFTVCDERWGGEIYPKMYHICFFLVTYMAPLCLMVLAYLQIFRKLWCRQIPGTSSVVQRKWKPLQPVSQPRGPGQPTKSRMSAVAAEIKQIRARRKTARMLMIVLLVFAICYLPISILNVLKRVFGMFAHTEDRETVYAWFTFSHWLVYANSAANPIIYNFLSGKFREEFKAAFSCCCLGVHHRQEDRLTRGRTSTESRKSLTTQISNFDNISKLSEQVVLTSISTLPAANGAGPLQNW
Experiment: hOX2R IPone assay (orexin receptor agonism)
Type: cell-based
Conditions: IPone readout; for hOX2R_Ipone max %act: maximal activation; for EC50: orexin receptor agonist, read-out: hOX2R_IPone EC50

SMILES	hOX2R_Ipone max %act	EC50
CCN1C(=O)N[C@@H](CCC(F)(F)F)CCCCOc2nc(cn3ccnc23)-c2cc(cnc2OC)[C@H]1C [Example 27, (3R,7R,E)-4-ethyl-22-methoxy-3-methyl-7-(3,3,3-trifluoropropyl)-12-oxa-4,6-diaza-1(6,8)-imidazo[1,2-a]pyrazina-2(3,5)-pyridinacyclododecaphan-5-one]	101.1%	1.4 nM
CCN1C(=O)N[C@@H](CCC(F)(F)F)CCCCCOc2nc(cn3ccnc23)-c2cc(cnc2OC)[C@H]1C [Example 28, (3R,7R,E)-4-ethyl-22-methoxy-3-methyl-7-(3,3,3-trifluoropropyl)-13-oxa-4,6-diaza-1(6,8)-imidazo[1,2-a]pyrazina-2(3,5)-pyridinacyclotridecaphan-5-one]	102.2%	0.9 nM
CCN1C(=O)N[C@@H](CCC(F)(F)F)CCCCOc2nc(cn3ccnc23)-c2ccnc(c2)[C@@H]1C [Example 29A, (12S,16R)-13-ethyl-12-methyl-16-(3,3,3-tri-fluoropropyl)-12,13,15,16,17, 18,19,20-octahydro-14H-6,22-(azeno)-11,7-(metheno) imidazo[2,1-c][1,4,10,13,15] oxatetraazacyclo-icosin-14-one]	99.5%	42.9 nM
CCN1C(=O)N[C@@H](CCC(F)(F)F)CCCCOc2nc(cn3ccnc23)-c2ccnc(c2)[C@H]1C [Example 29B, (12R,16R)-13-ethyl-12-methyl-16-(3,3,3-trifluoropropyl)-12,13,15,16,17, 18,19,20-octahydro-14H-6,22-(azeno)-11,7-(metheno) imidazo[2,1-c][1,4,10,13,15] oxatetraazacyclo-icosin-14-one]	99.7%	4.5 nM
CCN1C(=O)N[C@@H](CCC(F)(F)F)CCCCCOc2nc(cn3ccnc23)-c2ccnc(c2)[C@@H]1C [Example 30, (12S,16R)-13-ethyl-12-methyl-16-(3,3,3-trifluoropropyl)-12,13,16,17,18, 19,20,21-octa-hydro-6,23-(azeno)-11,7-(metheno)imidazo [2,1-c][1,4,10, 13,15]oxatetra-azacyclohenicosin-14(15H)-one]	98.5%	51.1 nM
CCN1C(=O)N[C@@H](CCC(F)(F)F)C/C=C\COc2nc(cn3ccnc23)-c2cccc(c2)[C@H]1C [Example 31, (1^7E,3R,7S,9Z)-4-ethyl-3-methyl-7-(3,3,3-trifluoropropyl)-12-oxa-4,6-diaza-1(6,8)-imidazo[1,2-a]pyrazina-2(1,3)-benzenacyclododecaphan-9-en-5-one]	100.5%	8 nM
CCN1C(=O)N[C@@H](CCC(F)(F)F)CCCCOc2nc(cn3ccnc23)-c2cccc(c2)[C@H]1C [Example 32, (3R,7R,E)-4-ethyl-3-methyl-7-(3,3,3-trifluoropropyl)-12-oxa-4,6-diaza-1(6,8)-imidazo[1,2-a]pyrazina-2(1,3)-benzenacyclododecaphan-5-one]	101%	2.8 nM
CCN1C(=O)N[C@@H](CCC(F)(F)F)C/C=C\COc2nc(cn3ncnc23)-c2cc(ncc2OC)C1C(F)(F)F (stereo partly drawn) [Example 33, (16S,18Z)-13-ethyl-8-methoxy-12-(trifluoromethyl)-16-(3,3,3-trifluoropropyl)-12,13,15,16,17,20-hexahydro-14H-6,22-(azeno)-11,7-(metheno) [1,2,4]triazolo[5,1-c] [1,4,10,13,15]oxatetra-azacycloicosin-14-one]	98.8%	335 nM
CCN1C(=O)NCCCCCOc2nc(cn3ncnc23)-c2cc(ncc2OC)C1C(F)(F)F (centres unmarked) [Example 35, 13-ethyl-8-methoxy-12-(trifluoromethyl)-12,13,15,16,17,18,19,20-octahydro-14H-6,22-(azeno)-11,7-(metheno) [1,2,4]triazolo[5,1-c][1,4,10,13,15]oxatetra-azacycloicosin-14-one]	82.8%	4710 nM
CCN1C(=O)N[C@@H](C(F)(F)F)CCCCOc2nc(cn3ncnc23)-c2cc(ncc2OC)C1C(F)(F)F (stereo partly drawn) [Example 37, (16R)-13-ethyl-8-methoxy-12,16-bis(trifluoromethyl)-12,13,15,16,17,18,19,20-octahydro-14H-6,22-(azeno)-11,7-(metheno) [1,2,4]triazolo[5,1-c][1,4,10,13,15]oxatetra-azacycloicosin-14-one]	77.3%	3010 nM
CCN1C(=O)N[C@@H](CC(F)(F)F)CCCCOc2nc(cn3ncnc23)-c2cc(ncc2OC)C1C(F)(F)F (stereo partly drawn) [Example 38, (16R)-13-ethyl-8-methoxy-16-(2,2,2-trifluoroethyl)-12-(trifluoromethyl)-12,13,15,16,17,18,19,20-octahydro-14H-6,22-(azeno)-11,7-(metheno) [1,2,4]triazolo[5,1-c][1,4,10,13,15]oxatetra-azacycloicosin-14-one]	94.5%	2390 nM
CCN1Cc2cccc(c2)-c2cn3ccnc3c(n2)OCCCC[C@H](CCC(F)(F)F)NC1=O [Example 43, (16R)-13-ethyl-16-(3,3,3-trifluoropropyl)-12,13,15,16,17,18,19,20-octahydro-14H-6,22-(azeno)-11,7-(metheno)imidazo[2,1-c][1,4,13,15]oxatriaza-cycloicosin-14-one]	97.6%	49.9 nM
CCN1Cc2ccc(OC)c(c2)-c2cn3ccnc3c(n2)OCCCC[C@H](CCC(F)(F)F)NC1=O [Example 44, (16R)-13-ethyl-8-methoxy-16-(3,3,3-trifluoropropyl)-12,13,15,16,17,18,19,20-octahydro-14H-6,22-(azeno)-11,7-(metheno)imidazo[2,1-c][1,4,13,15]oxatriaza-cycloicosin-14-one]	100.4%	1 nM
CCN1Cc2cc(c(OC)cn2)-c2cn3ccnc3c(n2)OCCCC[C@H](CCC(F)(F)F)NC1=O [Example 45, (16R)-13-ethyl-8-methoxy-16-(3,3,3-trifluoropropyl)-12,13,15,16,17,18,19,20-octahydro-14H-6,22-(azeno)-11,7-(metheno)imidazo[2,1-c][1,4,10,13,15]oxatetra-azacycloicosin-14-one]	100.1%	14.1 nM

Continued, values first:

hOX2R_Ipone max %act	EC50	SMILES
99.9%	9.9 nM	CCN1C(=O)N[C@@H](CCC(F)(F)F)CCCCOc2nc(nn3ccnc23)-c2cc(cnc2OC)[C@H]1C [Example 46, (3R,7R,E)-4-ethyl-22-methoxy-3-methyl-7-(3,3,3-trifluoropropyl)-12-oxa-4,6-diaza-1(2,4)-imidazo[2,1-f][1,2,4]triazina-2(3,5)-pyridinacyclododecaphan-5-one]
100.5%	4.3 nM	CCN1C(=O)N[C@@H](CCC(F)(F)F)CCCCCOc2nc(nn3ccnc23)-c2cc(cnc2OC)[C@H]1C [Example 47, (3R,7R,E)-4-ethyl-22-methoxy-3-methyl-7-(3,3,3-trifluoropropyl)-13-oxa-4,6-diaza-1(2,4)-imidazo[2,1-f][1,2,4]triazina-2(3,5)-pyridinacyclotridecaphan-5-one]
74.7%	42 nM	CCN1C(=O)NCCCCCOc2nc(cn3ccnc23)-c2cccc(c2)[C@H]1C [Example 49, (12R)-13-ethyl-12-methyl-12,13,15,16,17,18,19,20-octahydro-14H-6,22-(azeno)-11,7-(metheno)imidazo[2,1-c][1,4,13,15]oxatriaza-cycloicosin-14-one]
98.7%	0.8 nM	CCN1C(=O)N[C@@H](CCC(F)(F)F)CCCCCOc2cc(cn3ccnc23)-c2nc(ccc2OC)[C@H]1C [Example 50, (3R,7R,E)-4-ethyl-23-methoxy-3-methyl-7-(3,3,3-trifluoropropyl)-13-oxa-4,6-diaza-1(6,8)-imidazo[1,2-a]pyridina-2(2,6)-pyridinacyclotridecaphan-5-one]
99.5%	0.6 nM	CCN1Cc2cnc(OC)c(c2)-c2cn3ccnc3c(n2)OCCCCC[C@H](CCC(F)(F)F)NC1=O [Example 51]
101.7%	20.9 nM	CCN1C(=O)N[C@@H](C(F)(F)F)CCCCCOc2nc(cn3ccnc23)-c2cc(ncc2OC)[C@H]1C [Example 77, (12R,16R)-13-ethyl-8-methoxy-12-methyl-16-(trifluoromethyl)-12,13,16,17,18,19,20, 21-octahydro-6,23-(azeno)-11,7-(metheno)imidazo[2,1-c][1,4,10,13,15]oxatet-raazacyclohenicosin-14(15H)-one]
99.0%	1.7 nM	CCN1C(=O)N[C@@H](CCC(F)(F)F)CCCCCOc2nc(cn3ccnc23)-c2cc(cnc2C)[C@H]1C [Example 78, (12R,16R)-13-ethyl-8,12-dimethyl-16-(3,3,3-trifluoropropyl)-12,13,16,17,18,19,20, 21-octahydro-6,23-(azeno)-11,7-(metheno)imidazo[2,1-c][1,4,9,13,15]oxatet-raazacyclohenicosin-14(15H)-one]
99.3%	1 nM	CCN1C(=O)N[C@@H](CCC(F)(F)F)CCCCCOc2nc(cn3ccnc23)-c2cc(ncc2C)[C@H]1C [Example 79, (12R,16R)-13-ethyl-8,12-dimethyl-16-(3,3,3-trifluoro-propyl)-12,13,16,17, 18,19,20,21-octa-hydro-6,23-(azeno)-11,7-(metheno) imidazo[2,1-c][1,4,10, 13,15]oxatetraazacyclo-henicosin-14(15H)-one]
